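These data come from cells grown in 96-well plates and exposed to compound for 48 hours at five concentrations. GI50 = concentration required for 50% inhibition of growth.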 Activity calls are given as the source filed them. No stated cut-off is given here; in the data, active = GI50 up to about 1.1 µM and inactive = higher.

Experiment in all cases: NCI anticancer screen, dose series, 48 h
In assay [1] the test system is TK-10.
Assay [2] relates to NCI-H522.
In assay [3] the test system is NCI-H460.
Assay [4] has as its system CCRF-CEM.
Assay [5] has as its system UACC-62.
Assay [6] concerns K562.
Assay [7] relates to OVCAR-5.
In assay [8] the test system is 786-0.
For assay [9], the system named is MDA-MB-435.
For assay [10], the system named is NCI/ADR-RES.
For assay [11], the system named is NCI-H226.
The test system of assay [12] is LOX IMVI.
For assay [13], the system named is SF-539.
Assay [14] relates to KM12.
Assay [15] relates to HL-60.

On to `COc1cc(-c2cc(=O)c3c(OC)c(OC)c(OC)c(OC)c3o2)c(OC)c(OC)c1OC`, for which the GI50 is 61.7 µM (inactive) in assay [1]; 20.7 µM (inactive) in [2]; 36.1 µM (inactive) in [3]; 50.7 µM (inactive) in assay [4]; 21.2 µM (inactive) in [5]; 60.3 µM (inactive) in assay [6]. The GI50 in assay [7] was > 100 µM (inactive); in assay [8] it was 47.5 µM (inactive); in [9], 45.8 µM (inactive); in [10] it was 17.9 µM (inactive); in assay [11] it was 38.1 µM (inactive); in [12], 32.1 µM (inactive). Moreover, the figures for the GI50 in assay [13], in assay [14] and in assay [15] were 47.8 µM (inactive), 21.9 µM (inactive) and 46.7 µM (inactive), respectively.
As for `Cc1cccc2c(=O)c3c(O)cc(O)cc3n(C)c12`, the GI50 in assay [1] was > 100 µM (inactive); in assay [2] it was > 100 µM (inactive); in [3], > 100 µM (inactive); in assay [4] it was > 100 µM (inactive); in assay [5], > 100 µM (inactive); in assay [6] it was 63.5 µM (inactive). The GI50 in assay [7], in assay [8], in assay [9], in assay [10], in assay [11] and in [12] was > 100 µM (inactive) in each case. Also, the GI50 in assay [13], in assay [14] and in assay [15] was > 100 µM (inactive) each time.
As for `OC(C1=C/C(=C\c2ccncc2)c2ccccc21)c1ccncc1` (stereo not given), the GI50 was 13.6 µM (inactive) in assay [1]; 9.48 µM (inactive) in assay [2]; 12.9 µM (inactive) in [3]; 7.41 µM (inactive) in assay [4]; 9.16 µM (inactive) in assay [5]; 4.72 µM (inactive) in assay [6]. The GI50 in assay [7] was 15.8 µM (inactive); in assay [8], 12.9 µM (inactive); in [9] it was 12 µM (inactive); in assay [10], 14.6 µM (inactive); in assay [11] it was 13.6 µM (inactive); in [12], 12.1 µM (inactive). Besides, the GI50 in [13] was 13.9 µM (inactive); in [14], 15.6 µM (inactive); in [15], 1.66 µM (inactive).
On to `Cc1c2c(OCCN3CCCCC3)nn(C)c(=O)c2c(C)n1-c1ccccc1`, for which the GI50 in [1] is 67.5 µM (inactive); in assay [2], 26.7 µM (inactive); in assay [3], 39.2 µM (inactive); in assay [4], 35.7 µM (inactive); in assay [5], 25.8 µM (inactive); in assay [6], 27.7 µM (inactive). Moreover, the GI50 in [7] was > 100 µM (inactive); in assay [8], 18.8 µM (inactive); in [9] it was 32.3 µM (inactive); in assay [10] it was 42.4 µM (inactive); in [11], 38 µM (inactive); in assay [12], 21.8 µM (inactive). Moreover, the GI50 in assay [13] is 29.4 µM (inactive); in [14], 32.7 µM (inactive); in assay [15] it was 31 µM (inactive).
Consider `O=C(CC(C(=O)c1ccoc1)c1ccco1)c1ccco1` (stereo not given), for which the GI50 is > 100 µM (inactive) in assay [1]; > 100 µM (inactive) in assay [2]; > 100 µM (inactive) in [3]; 24.2 µM (inactive) in assay [4]; > 100 µM (inactive) in assay [5]; > 100 µM (inactive) in [6]. The GI50 in assay [7] was > 100 µM (inactive); in [8] it was > 100 µM (inactive); in assay [9] it was 30 µM (inactive); in assay [10], 80.5 µM (inactive); in assay [11] it was > 100 µM (inactive); in assay [12], > 100 µM (inactive). Further, the GI50 in assay [13] was > 100 µM (inactive); in assay [14], 57 µM (inactive); in assay [15] it was > 100 µM (inactive).
In the case of `Cc1cc(S(=O)(=O)Nc2n[nH]c(-c3ccc(Cl)cc3)n2)c(SSc2cc(Cl)c(C)cc2S(=O)(=O)Nc2n[nH]c(-c3ccc(Cl)cc3)n2)cc1Cl`, the GI50 in assay [1] was 58.3 µM (inactive); in assay [2], 32.2 µM (inactive); in assay [3], 22.4 µM (inactive); in [4], 25.9 µM (inactive); in assay [5] it was 21.4 µM (inactive); in assay [6], 27 µM (inactive). In addition, the GI50 in assay [7] was 22 µM (inactive); in assay [8], 33.7 µM (inactive); in assay [9] it was 31.7 µM (inactive); in assay [10], 47.1 µM (inactive); in assay [11], 22.5 µM (inactive); in [12], 26.2 µM (inactive). Further, the GI50 was 40.8 µM (inactive) in [13], 29.2 µM (inactive) in [14] and 23.2 µM (inactive) in assay [15].
In the case of `CN1c2ccc(O)c(O)c2-c2cc(O)cc3c2C1CCC3` (stereo not given), the GI50 in [1] is 18 µM (inactive); in assay [2] it was 4.5 µM (inactive); in assay [3], 23.9 µM (inactive); in [4], 2.58 µM (inactive); in assay [5], 16.3 µM (inactive); in assay [6] it was 14.4 µM (inactive). Also, the GI50 in assay [7] was 24.5 µM (inactive); in [8], 15.2 µM (inactive); in assay [9], 15.6 µM (inactive); in assay [10], 18 µM (inactive); in [11], 27.9 µM (inactive); in assay [12] it was 11.2 µM (inactive). Besides, the results for the GI50 in assay [13], in [14] and in [15] were 21.6 µM (inactive), 21.4 µM (inactive) and 14.6 µM (inactive), respectively.
For `CCCC(=O)Nc1cc(/C=C/C(=O)N2CC(CCl)c3ccc(N)cc32)n(C)c1` (stereo not given), the GI50 was 0.112 µM (active) in [1]; < 0.0113 µM (active) in assay [2]; 0.0998 µM (active) in assay [3]; 0.195 µM (active) in [4]; 0.092 µM (active) in [5]; 0.116 µM (active) in assay [6]. Also, the GI50 is 0.375 µM (active) in assay [7]; 0.107 µM (active) in assay [8]; 0.256 µM (active) in assay [9]; 0.447 µM (active) in [10]; 0.282 µM (active) in assay [11]; 0.148 µM (active) in [12]. Also, the GI50 in assay [13] is 0.22 µM (active); in assay [14], 0.257 µM (active); in assay [15], 0.206 µM (active).
Take `O=C1NC(=O)C(C(CC(=O)c2ccc([N+](=O)[O-])cc2)c2ccccc2)C(=O)N1` (stereo not given): the GI50 in assay [1] was 0.0471 µM (active); in assay [2], 47.2 µM (inactive); in assay [3] it was > 100 µM (inactive); in [4] it was 35.2 µM (inactive); in [5], 77.1 µM (inactive); in [6], 60.3 µM (inactive). For the same molecule, the GI50 in [7] is > 100 µM (inactive); in assay [8], > 100 µM (inactive); in assay [9] it was 49.8 µM (inactive); in [10] it was > 100 µM (inactive); in [11], > 100 µM (inactive); in assay [12], 20 µM (inactive). In addition, the GI50 was > 100 µM (inactive) in assay [13], 14.8 µM (inactive) in [14] and > 100 µM (inactive) in assay [15].
Regarding `O=C(N/N=C\c1cccc2c([N+](=O)[O-])cccc12)Nc1ccccc1`, the GI50 in assay [1] is 11.7 µM (inactive); in assay [2], 14.6 µM (inactive); in [3], 14.2 µM (inactive); in assay [4], 10.5 µM (inactive); in assay [5], 10.4 µM (inactive); in assay [6], 5.85 µM (inactive). For the same molecule, the GI50 was 15.1 µM (inactive) in assay [7]; 16.6 µM (inactive) in assay [8]; 9.29 µM (inactive) in assay [9]; 12.4 µM (inactive) in assay [10]; 13.6 µM (inactive) in assay [11]; 7.74 µM (inactive) in assay [12]. In addition, the figures for the GI50 in assay [13], in assay [14] and in [15] were 11.5 µM (inactive), 14.9 µM (inactive) and 14.7 µM (inactive), respectively.
On to `COc1cnnc2c(C)c(-c3ccccc3)nn12`, for which the GI50 was > 100 µM (inactive) in assay [1]; > 93.5 µM (inactive) in [2]; 66.1 µM (inactive) in assay [3]; > 73.1 µM (inactive) in assay [4]; 42.4 µM (inactive) in [5]; > 100 µM (inactive) in [6]. The GI50 is > 100 µM (inactive) in assay [7]; > 84.9 µM (inactive) in assay [8]; 77.4 µM (inactive) in [9]; > 100 µM (inactive) in [10]; > 100 µM (inactive) in [11]; > 100 µM (inactive) in assay [12]. Moreover, the values for the GI50 in [13], in [14] and in assay [15] were > 100 µM (inactive), > 75.2 µM (inactive) and > 100 µM (inactive), respectively.
Take `COc1cccc(C2c3cc4c(cc3OC(C)(N3CCCC3)C2C)OCO4)c1O` (stereo not given): the GI50 in [1] is 5.4 µM (inactive); in assay [2] it was 2.05 µM (inactive); in assay [3] it was 5.5 µM (inactive); in assay [4] it was 9.06 µM (inactive); in assay [5], 4.6 µM (inactive); in assay [6] it was 3.45 µM (inactive). In addition, the GI50 in assay [7] was 8.36 µM (inactive); in assay [8] it was 4.71 µM (inactive); in assay [9] it was 1.63 µM (inactive); in [10] it was 2.72 µM (inactive); in assay [11], 4.49 µM (inactive); in assay [12], 4.82 µM (inactive). Besides, the GI50 in [13] is 4.31 µM (inactive); in [14], 3.14 µM (inactive); in assay [15], 2.71 µM (inactive).
Take `COc1cc2c(/C=C3/C(=O)N(C)c4ccc(O)cc43)c(Cl)[nH]c2cc1C`: the GI50 in assay [1] was 2.81 µM (inactive); in assay [2], 0.404 µM (active); in assay [3] it was 0.454 µM (active); in assay [4] it was 0.284 µM (active); in assay [5], 0.281 µM (active); in assay [6], 0.124 µM (active). The GI50 is 3.79 µM (inactive) in assay [7]; 0.362 µM (active) in assay [8]; 0.0284 µM (active) in assay [9]; 0.703 µM (active) in assay [10]; 0.516 µM (active) in assay [11]; 0.594 µM (active) in assay [12]. The GI50 in assay [13] was 0.248 µM (active); in assay [14], 0.356 µM (active); in [15], 0.281 µM (active).

These data come from ChEMBL document CHEMBL1201862, “PubChem BioAssay data set” (2004).
